Tested on: 429239-143-T-J1-PDC complex spheroid viability
Assay: Anticancer human tumor 429239-143-T-J1-PDC patient-derived small cell lung carcinoma cell line growth inhibition [POLQ]
Settings: for IC50: curve of first compound; for viability, T/C: stronger effect = lower value
In short: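 Three-cell-type spheroids modelling solid tumor plus stroma served as the readout system; POL inhibitors were tested individually and in combination, concentration ranges set by clinical Cmax where known.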

[1] = second compound 0.0316 µM, first compound 0.0316 µM
[2] = second compound 0.0316 µM, first compound 0.1 µM
[3] = second compound 0.0316 µM, first compound 0.316 µM
[4] = second compound 0.0316 µM, first compound 1 µM
[5] = second compound 0.0316 µM, first compound 3.16 µM
[6] = second compound 0.0316 µM, first compound 10 µM
[7] = second compound 0.1 µM, first compound 0.0316 µM
[8] = second compound 0.1 µM, first compound 0.1 µM
[9] = second compound 0.1 µM, first compound 0.316 µM
[10] = second compound 0.1 µM, first compound 1 µM
[11] = second compound 0.1 µM, first compound 3.16 µM
[12] = second compound 0.1 µM, first compound 10 µM
[13] = second compound 0.316 µM, first compound 0.0316 µM
[14] = second compound 0.316 µM, first compound 0.1 µM
[15] = second compound 0.316 µM, first compound 0.316 µM
[16] = second compound 0.316 µM, first compound 1 µM
[17] = second compound 0.316 µM, first compound 3.16 µM
[18] = second compound 0.316 µM, first compound 10 µM
[19] = second compound 1 µM, first compound 0.0316 µM
[20] = second compound 1 µM, first compound 0.1 µM
[21] = second compound 1 µM, first compound 0.316 µM
[22] = second compound 1 µM, first compound 1 µM
[23] = second compound 1 µM, first compound 3.16 µM
[24] = second compound 1 µM, first compound 10 µM
[25] = second compound 3.16 µM, first compound 0.0316 µM
[26] = second compound 3.16 µM, first compound 0.1 µM
[27] = second compound 3.16 µM, first compound 0.316 µM
[28] = second compound 3.16 µM, first compound 1 µM
[29] = second compound 3.16 µM, first compound 3.16 µM
[30] = second compound 3.16 µM, first compound 10 µM
[31] = second compound 10 µM, first compound 0.0316 µM
[32] = second compound 10 µM, first compound 0.1 µM
[33] = second compound 10 µM, first compound 0.316 µM
[34] = second compound 10 µM, first compound 1 µM
[35] = second compound 10 µM, first compound 3.16 µM
[36] = second compound 10 µM, first compound 10 µM
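Note: luminescence signal used as surrogate measure of viable cells; spheroids exposed to compounds for seven days before readout.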
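Throughout, for viability, T/C: 100% = DMSO vehicle control viability as luminescence relative to vehicle.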

## O=C(c1cc(Cc2n[nH]c(=O)c3ccccc23)ccc1F)N1CCN(C(=O)C2CC2)CC1 + Nc1ccc(C#CCN(C(=O)Cc2ncc(C(F)(F)F)cc2C(F)(F)F)c2ccc(F)cc2)nn1
Second compound 0.0316 µM
  IC50: 4.18 µM
Second compound 0.1 µM
  IC50: 3.96 µM
Second compound 0.316 µM
  IC50: 4.09 µM
Second compound 1 µM
  IC50: 4.13 µM
Second compound 3.16 µM
  IC50: 4.25 µM
Second compound 10 µM
  IC50: 3.6 µM
[1]
  viability, T/C: 101%
[2]
  viability, T/C: 98.4%
[3]
  viability, T/C: 92.4%
[4]
  viability, T/C: 84.9%
[5]
  viability, T/C: 64.8%
[6]
  viability, T/C: 7.77%
[7]
  viability, T/C: 96.6%
[8]
  viability, T/C: 104%
[9]
  viability, T/C: 90%
[10]
  viability, T/C: 95.9%
[11]
  viability, T/C: 60.8%
[12]
  viability, T/C: 6.66%
[13]
  viability, T/C: 104%
[14]
  viability, T/C: 99.1%
[15]
  viability, T/C: 91.3%
[16]
  viability, T/C: 81.2%
[17]
  viability, T/C: 65.8%
[18]
  viability, T/C: 9.12%
[19]
  viability, T/C: 105%
[20]
  viability, T/C: 94.4%
[21]
  viability, T/C: 88.5%
[22]
  viability, T/C: 84.9%
[23]
  viability, T/C: 64.8%
[24]
  viability, T/C: 8.72%
[25]
  viability, T/C: 97.6%
[26]
  viability, T/C: 93.4%
[27]
  viability, T/C: 90.8%
[28]
  viability, T/C: 95.2%
[29]
  viability, T/C: 64.3%
[30]
  viability, T/C: 8.47%
[31]
  viability, T/C: 102%
[32]
  viability, T/C: 92%
[33]
  viability, T/C: 93.5%
[34]
  viability, T/C: 88.9%
[35]
  viability, T/C: 55.4%
[36]
  viability, T/C: 6.04%

## O=c1[nH]cc(F)c(=O)[nH]1 + Nc1ccc(C#CCN(C(=O)Cc2ncc(C(F)(F)F)cc2C(F)(F)F)c2ccc(F)cc2)nn1
Second compound 0.0316 µM
  IC50: 3.24 µM
Second compound 0.1 µM
  IC50: 3.29 µM
Second compound 0.316 µM
  IC50: 4.05 µM
Second compound 1 µM
  IC50: 4.13 µM
Second compound 3.16 µM
  IC50: 2.53 µM
Second compound 10 µM
  IC50: 3.17 µM
[1]
  viability, T/C: 98.3%
[2]
  viability, T/C: 105%
[3]
  viability, T/C: 96.6%
[4]
  viability, T/C: 80.8%
[5]
  viability, T/C: 50.7%
[6]
  viability, T/C: 31.6%
[7]
  viability, T/C: 107%
[8]
  viability, T/C: 105%
[9]
  viability, T/C: 104%
[10]
  viability, T/C: 81%
[11]
  viability, T/C: 51.5%
[12]
  viability, T/C: 35.2%
[13]
  viability, T/C: 100%
[14]
  viability, T/C: 110%
[15]
  viability, T/C: 104%
[16]
  viability, T/C: 82.8%
[17]
  viability, T/C: 56.7%
[18]
  viability, T/C: 30.7%
[19]
  viability, T/C: 115%
[20]
  viability, T/C: 99.7%
[21]
  viability, T/C: 105%
[22]
  viability, T/C: 77.9%
[23]
  viability, T/C: 56.3%
[24]
  viability, T/C: 31.5%
[25]
  viability, T/C: 98.1%
[26]
  viability, T/C: 105%
[27]
  viability, T/C: 102%
[28]
  viability, T/C: 80.2%
[29]
  viability, T/C: 43.3%
[30]
  viability, T/C: 32.1%
[31]
  viability, T/C: 104%
[32]
  viability, T/C: 97.6%
[33]
  viability, T/C: 106%
[34]
  viability, T/C: 83.1%
[35]
  viability, T/C: 51.1%
[36]
  viability, T/C: 34.1%

Reference: PubChem BioAssay AID1963845 (Molecular Pharmacology Branch, DTP, NCI, 2024)
